Data as given in patent US20140024803A1, “18FDG MULTIMERIC POSITRON EMISSION TOMOGRAPHY IMAGING AGENTS” (priority 2012, published 2014).

Test: In vitro calcium salt specificity experiment (PET/CT of crystals after incubation and washing)
Assay type: binding
Conditions: 5 mg/mL calcium salts (HA, phosphate, oxalate, carbonate, pyrophosphate), 10 μCi in 100 μL PBS, 20 min at RT, washed, 10 minute static PET/CT scan
Procedure: To determine the selectivity and specificity of ^18FDG amino-Ad-Pam-Monomer for hydroxyapatite (HA), a major mineral component of calcifications and normal bone, over other calcium salts, in the present invention an incubation of equal quantity each of Ca-hydroxyapatite (HA), Ca-pyrophosphate (CPP), Ca-phosphate (CP), Ca-oxalate (CO), and Ca-carbonate (CC) salts with ^18FDG amino-Ad-Pam-Monomer in phosphate buffered saline (PBS) is performed. PET/CT images are acquired after incubation and washing of crystals, ^18FDG amino-Ad-Pam-Monomer has about 5-fold specificity for HA over other calcium salts found in the body and permits PET/CT detection of HA with high sensitivity. However, Na^18F, the Food and Drug Administration approved imaging agent for bone scintigraphy, permits about 1.5 fold specificity for HA over other calcium salts.
In a 96-well plate, 5 mg/mL of hydroxyapatite (HA) or the phosphate, oxalate, carbonate, and pyrophosphate salts of calcium are separately incubated with ^18FDG amino-Ad-Pam-Monomer (10 μCi) in 100 μL PBS for 20 min with continuous vortexing at RT. Crystals are washed 4 times with a 100-fold excess of PBS, centrifuged and mounted on PET/CT and 10 minute static scans are acquired. Similarly, calcium salt binding study is performed with Na^18F in a same condition.

[18F-].[Na+] [Na^18F]
specificity for HA over other calcium salts: about 1.5 fold
